pIC50: −log10 of the molar value.
Assays:
[1] = molecular target: T1, GSTO1–1 (Homo sapiens, UniProt P78417); conditions: GSTO1–1 binding assay
T1 sequence (P78417 1-241): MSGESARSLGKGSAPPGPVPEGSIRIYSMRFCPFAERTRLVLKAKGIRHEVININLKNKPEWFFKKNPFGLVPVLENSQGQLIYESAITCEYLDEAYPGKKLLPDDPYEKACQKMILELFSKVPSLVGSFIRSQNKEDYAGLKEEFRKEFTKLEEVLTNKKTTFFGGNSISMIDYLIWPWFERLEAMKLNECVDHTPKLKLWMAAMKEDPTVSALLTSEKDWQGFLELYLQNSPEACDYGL

[2] = test system: HCT116; experiment: MTT cell viability assay, HCT116; type: cell-based; conditions: read-out: IC50-MTT HCT116; HCT116, 72 h; values of two independent experiments
[3] = Stability in 20% acetonitrile/PBS buffer by LC–MS; type: physicochemical; conditions: room temperature overnight

Structure (SMILES) | GSTO1–1 binding activity (in words) [1] | other results
C=CC(=O)Nc1cnn(-c2ccccc2)c1 [Compound 5, N-(1-Phenyl-1H-pyrazol-4-yl)acrylamide] | inactive | –
C=CC(=O)Nc1cnn(Cc2ccccc2)c1 [Compound 6, N-(1-Benzyl-1H-pyrazol-4-yl)acrylamide] | inactive | –
C=CC(=O)N1CCC(c2ccccc2)CC1 [Compound 7, 1-(4-Phenylpiperidin-1-yl)prop-2-en-1-one] | did not possess significant GSTO1–1 binding activity | –
C=CC(=O)N1CCC(Cc2ccccc2)CC1 [Compound 8, 1-(4-Benzylpiperidin-1-yl)prop-2-en-1-one] | did not possess significant GSTO1–1 binding activity | –
C=CC(=O)Nc1nc(-c2ccc(O)cc2)cs1 [Compound 25, N-(4-(4-Hydroxylphenyl)thiazol-2-yl)acrylamide] | – | pIC50 [2]: 5.15
C=CC(=O)Nc1nc(-c2ccccc2OC)cs1 [Compound 26, N-(4-(2-Methoxyphenyl)thiazol-2-yl)acrylamide] | inactive | –
C=CC(=O)N(Cc1cc(C)no1)c1nc(-c2ccccc2O)cs1 [Compound 49, N-((3-Methylisoxazol-5-yl)methyl)-N-(4-(2-hydroxylphenyl)thiazol-2-yl)acrylamide] | – | stability in 20% acetonitrile/PBS buffer solution [3]: good stability
